Reference: patent US11000033B2, “Ketone or oxime compound, and herbicide” (NISSAN CHEMICAL CORPORATION, priority 2014, dated 2021)

Experiments:
Assay type in all cases: in vivo
corn = test: Test Example 4: effect on crop by soil treatment (symbol c); details: for c: corn, effect grade on crop: 320 g/ha
In short: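 Diluvial soil (sterilized) in boxes; seeds placed spot-wise alongside weed species; ~1.5 cm covering soil. Greenhouse, 25–30° C.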

rice = test: Test Example 4: effect on crop by soil treatment (symbol b); details: for b: directly sowed rice plant, effect grade on crop: 320 g/ha
In short: (§1)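 Sterilized diluvial soil, spot sowing, ~1.5 cm soil cover; greenhouse 25–30° C.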

Stellaria media = test: Test Example 4: herbicidal effect by soil treatment (symbol P); details: for P: Stellaria media, herbicidal effect grade: 320 g/ha
In short: (§2)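 Seeds were sown in sterilized diluvial soil, covered with about 1.5 cm of soil, and the soil surface was sprayed with a water-diluted emulsion of the compound at a predetermined rate. Plants grew in a greenhouse at 25° C. to 30° C.; effects were scored visually 3 weeks after application.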

Alopecurus myosuroides [1] = test: Test Example 5: herbicidal effect by foliage application, plastic box (symbol J); details: 320 g/ha, 3 weeks after application
In short: (§3)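 Leaf-applied emulsion, water-diluted to a preset herbicide dose, on two-week-old seedlings raised in a 25° C. to 30° C. greenhouse; injury rated at 3 weeks using earlier criteria.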

[2] = tested on: Echinochloa oryzacola Vasing.; test: Test Example 1: herbicidal activity, application before weed generation in submerged conditions (symbol A); details: application herbicide amount 320 g/ha
In short: (§4)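 Pre-emergence, paddy conditions: emulsifiable formulation diluted in water, dosed onto floodwater (4 cm depth) on sowing day. Alluvial soil; weeds sown mixed; rice transplanted at 2.5-leaf stage. Greenhouse 25–30 °C, 3 wk. Score 0–5 (5 = ≥90% kill, 0 = ≤5%).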

wheat = test: Test Example 4: effect on crop by soil treatment (symbol e); details: for e: wheat, effect grade on crop: 320 g/ha
In short: as §1

Alopecurus myosuroides [3] = test: Test Example 4: herbicidal effect by soil treatment (symbol J); details: for J: Alopecurus myosuroides, herbicidal effect grade: 320 g/ha
In short: as §2

Galium spurium [4] = test: Test Example 5: herbicidal effect by foliage application, plastic box (symbol Q); details: 320 g/ha, 3 weeks after application
In short: as §3

Galium spurium [5] = test: Test Example 4: herbicidal effect by soil treatment (symbol Q); details: for Q: Galium spurium, herbicidal effect grade: 320 g/ha
In short: as §2

transplanted rice plant = test: Test Example 1: effect on crop, application before weed generation in submerged conditions (symbol a); details: application herbicide amount 320 g/ha
In short: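 Rice at 2.5 leaf stage transplanted into submerged soil (4 cm depth) sown with three weed species; herbicide applied before weed emergence.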

Setaria viridis = test: Test Example 5: herbicidal effect by foliage application, plastic box (symbol G); details: 320 g/ha, 3 weeks after application
In short: as §3

Lolium multiflorum Lam. = test: Test Example 5: herbicidal effect by foliage application, plastic box (symbol K); details: 320 g/ha, 3 weeks after application
In short: as §3

Scirpus juncoides = test: Test Example 1: herbicidal activity, application before weed generation in submerged conditions (symbol B); details: application herbicide amount 320 g/ha
In short: as §4

soybean = test: Test Example 4: effect on crop by soil treatment (symbol d); details: for d: soybean, effect grade on crop: 320 g/ha
In short: as §1

Cyperus difformis = test: Test Example 3: herbicidal effect by foliage application, Wagner pot (symbol E); details: application herbicide amount 320 g/ha
In short: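 Alluvial soil was flooded to a depth of 0.1–0.5 cm, seeded with the weeds and rice, and kept in a greenhouse at 25–30 °C. After 14 days of growth, the foliage received a small-sprayer application of emulsion diluted to the intended rate; injury was rated at 3 weeks.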

[6] = application herbicide amount 320 g/ha

| Compound | Herbicidal effect grade, A: Echinochloa oryzacola Vasing. [2] | Effect grade on crop, a: transplanted rice plant (transplanted rice plant) | Herbicidal effect grade, B: Scirpus juncoides (Scirpus juncoides) | herbicidal effect on E, grade 0-5 (Cyperus difformis) | c: corn, effect grade on crop (corn) | b: directly sowed rice plant, effect grade on crop (rice) | P: Stellaria media, herbicidal effect grade (Stellaria media) | J: Alopecurus myosuroides, herbicidal effect (criteria 0-5) (Alopecurus myosuroides [1]) | e: wheat, effect grade on crop (wheat) | J: Alopecurus myosuroides, herbicidal effect grade (Alopecurus myosuroides [3]) | Q: Galium spurium, herbicidal effect (criteria 0-5) (Galium spurium [4]) | Q: Galium spurium, herbicidal effect grade (Galium spurium [5]) | G: Setaria viridis, herbicidal effect (criteria 0-5) (Setaria viridis) | K: Lolium multiflorum Lam., herbicidal effect (criteria 0-5) (Lolium multiflorum Lam.) | d: soybean, effect grade on crop (soybean) | further results |
| --- | --- | --- | --- | --- | --- | --- | --- | --- | --- | --- | --- | --- | --- | --- | --- | --- |
| CON=C(C)CC1CC(OC(=O)c2ccccc2)=C(c2c(C)cc(C)cc2C)C1=O (stereo not drawn) [1-010] | 5 (Herbicidal ratio of 90% or more (almost completely withered)) | 5 (Herbicidal ratio of 90% or more (almost completely withered)) | 5 (Herbicidal ratio of 90% or more (almost completely withered)) | 5 (Herbicidal ratio of 90% or more (almost completely withered)) | – | – | – | – | – | – | – | – | – | – | – | c (corn) effect on crop grade (corn; [6]): 4 (Herbicidal ratio of 70% or higher and lower than 90%); b (directly sowed rice plant) effect on crop grade (rice; [6]): 5 (Herbicidal ratio of 90% or more (almost completely withered)); P (Stellaria media) herbicidal effect grade (Stellaria media; [6]): 4 (Herbicidal ratio of 70% or higher and lower than 90%); J: Alopecurus myosuroides, herbicidal effect grade (Alopecurus myosuroides [1]): 5 (Herbicidal ratio of 90% or more (almost completely withered)); e (wheat) effect on crop grade (wheat; [6]): 4 (Herbicidal ratio of 70% or higher and lower than 90%); J (Alopecurus myosuroides) herbicidal effect grade (Alopecurus myosuroides [3]; [6]): 5 (Herbicidal ratio of 90% or more (almost completely withered)); Q: Galium spurium, herbicidal effect grade (Galium spurium [4]): 4 (Herbicidal ratio of 70% or higher and lower than 90%); Q (Galium spurium) herbicidal effect grade (Galium spurium [5]; [6]): 2 (Herbicidal ratio of 20% or higher and lower than 40%); G: Setaria viridis, herbicidal effect grade (Setaria viridis): 5 (Herbicidal ratio of 90% or more (almost completely withered)); K: Lolium multiflorum Lam., herbicidal effect grade (Lolium multiflorum Lam.): 5 (Herbicidal ratio of 90% or more (almost completely withered)); d (soybean) effect on crop grade (soybean; [6]): 4 (Herbicidal ratio of 70% or higher and lower than 90%) |
| CON=C(C)CC1CC(OC(=O)C(C)(C)c2ccc(Cl)cc2)=C(c2c(C)cc(C)cc2C)C1=O (stereo not drawn) [1-148] | 5 (Herbicidal ratio of 90% or more (almost completely withered)) | 5 (Herbicidal ratio of 90% or more (almost completely withered)) | 4 (Herbicidal ratio of 70% or higher and lower than 90%) | 4 (Herbicidal ratio of 70% or higher and lower than 90%) | 3 (Herbicidal ratio of 40% or higher and lower than 70%) | 5 (Herbicidal ratio of 90% or more (almost completely withered)) | 0 (Herbicidal ratio of 5% or lower (almost no effect)) | 5 (Herbicidal ratio of 90% or more (almost completely withered)) | 0 (Herbicidal ratio of 5% or lower (almost no effect)) | 5 (Herbicidal ratio of 90% or more (almost completely withered)) | 3 (Herbicidal ratio of 40% or higher and lower than 70%) | 0 (Herbicidal ratio of 5% or lower (almost no effect)) | 5 (Herbicidal ratio of 90% or more (almost completely withered)) | 5 (Herbicidal ratio of 90% or more (almost completely withered)) | 0 (Herbicidal ratio of 5% or lower (almost no effect)) | – |
| CON=C(C)CC1CC(OC(=O)N2CCN(C)CC2)=C(c2c(C)cc(C)cc2C)C1=O (stereo not drawn) [1-152] | 4 (Herbicidal ratio of 70% or higher and lower than 90%) | 2 (Herbicidal ratio of 20% or higher and lower than 40%) | 0 (Herbicidal ratio of 5% or lower (almost no effect)) | 5 (Herbicidal ratio of 90% or more (almost completely withered)) | 0 (Herbicidal ratio of 5% or lower (almost no effect)) | 0 (Herbicidal ratio of 5% or lower (almost no effect)) | 0 (Herbicidal ratio of 5% or lower (almost no effect)) | 5 (Herbicidal ratio of 90% or more (almost completely withered)) | 0 (Herbicidal ratio of 5% or lower (almost no effect)) | 3 (Herbicidal ratio of 40% or higher and lower than 70%) | 0 (Herbicidal ratio of 5% or lower (almost no effect)) | 0 (Herbicidal ratio of 5% or lower (almost no effect)) | 5 (Herbicidal ratio of 90% or more (almost completely withered)) | 5 (Herbicidal ratio of 90% or more (almost completely withered)) | 0 (Herbicidal ratio of 5% or lower (almost no effect)) | – |
| C=CCN(CC=C)C(=O)OC1=C(c2c(C)cc(C)cc2C)C(=O)C(CC(C)=NOC)C1 (stereo not drawn) [1-153] | 5 (Herbicidal ratio of 90% or more (almost completely withered)) | 4 (Herbicidal ratio of 70% or higher and lower than 90%) | 3 (Herbicidal ratio of 40% or higher and lower than 70%) | 4 (Herbicidal ratio of 70% or higher and lower than 90%) | 0 (Herbicidal ratio of 5% or lower (almost no effect)) | 1 (Herbicidal ratio of 5% or higher and lower than 20%) | 0 (Herbicidal ratio of 5% or lower (almost no effect)) | 5 (Herbicidal ratio of 90% or more (almost completely withered)) | 2 (Herbicidal ratio of 20% or higher and lower than 40%) | 3 (Herbicidal ratio of 40% or higher and lower than 70%) | 3 (Herbicidal ratio of 40% or higher and lower than 70%) | 0 (Herbicidal ratio of 5% or lower (almost no effect)) | 5 (Herbicidal ratio of 90% or more (almost completely withered)) | 5 (Herbicidal ratio of 90% or more (almost completely withered)) | 0 (Herbicidal ratio of 5% or lower (almost no effect)) | – |
